Test results from PMC10223062, “Discovery of Novel Thiophene/Hydrazones: In Vitro and In Silico Studies against Pancreatic Cancer” (Pharmaceutics, 2023).
Structures can show the parent of a compound that is named as a salt.

Legend:
[1] = molecular target: T1, 5-LOX (Homo sapiens, UniProt P09917); assay: Fluorometric 5-LOX inhibitor screening kit; type: biochemical; conditions: for 5-LOX Percent of İnhibition: at 10 µM
T1 construct: purchased MyBioSource
T1 sequence (P09917 1-674): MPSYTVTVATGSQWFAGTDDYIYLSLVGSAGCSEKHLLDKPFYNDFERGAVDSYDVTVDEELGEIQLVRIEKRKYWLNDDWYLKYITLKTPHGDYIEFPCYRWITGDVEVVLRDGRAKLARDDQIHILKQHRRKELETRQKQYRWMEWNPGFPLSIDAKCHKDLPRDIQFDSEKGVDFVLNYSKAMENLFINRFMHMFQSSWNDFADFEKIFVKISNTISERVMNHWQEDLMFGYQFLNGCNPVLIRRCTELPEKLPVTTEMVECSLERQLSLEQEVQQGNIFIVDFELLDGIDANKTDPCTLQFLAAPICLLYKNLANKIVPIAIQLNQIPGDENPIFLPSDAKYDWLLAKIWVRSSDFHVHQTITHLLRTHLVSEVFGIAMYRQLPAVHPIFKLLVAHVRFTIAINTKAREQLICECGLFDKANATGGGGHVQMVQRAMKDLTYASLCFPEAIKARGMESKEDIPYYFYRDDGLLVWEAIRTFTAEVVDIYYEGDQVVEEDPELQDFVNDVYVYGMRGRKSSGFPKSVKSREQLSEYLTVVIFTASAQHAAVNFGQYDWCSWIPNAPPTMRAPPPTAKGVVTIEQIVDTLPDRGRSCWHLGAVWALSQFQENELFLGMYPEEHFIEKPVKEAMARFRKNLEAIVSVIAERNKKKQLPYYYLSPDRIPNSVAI
Description: COX-1 and COX-2 inhibitory activities were tested using fluorometric COX-1 and COX-2 inhibitor screening kits (Abcam, United Kingdom), and the 5-LOX inhibitory activity was tested using a fluorometric 5-LOX inhibitor screening kit (MyBioSource, USA). These assays are based on the fluorometric detection of Prostaglandin G2 (a product generated by the COX enzyme) or on the fluorometric detection of the intermediate generated by the 5-LOX enzyme. The experiments were conducted in accordance with the manufacturers’ instructions.
For the determination of 5-LOX inhibitory activity, tested compounds were dissolved in DMSO (5 mM stock solution) and then diluted with the same solvent to obtain the test solutions. Test solutions were added to wells in an amount of 2 µL in the final 100 µL reaction volume. […] EC, SC, IC, and all test solutions were analyzed in triplicate.

[2] = molecular target: T2, COX-2 (Homo sapiens, UniProt P35354); assay: Fluorometric COX-2 inhibitor screening kit; conditions: at 10 µM
T2 sequence (P35354 18-604): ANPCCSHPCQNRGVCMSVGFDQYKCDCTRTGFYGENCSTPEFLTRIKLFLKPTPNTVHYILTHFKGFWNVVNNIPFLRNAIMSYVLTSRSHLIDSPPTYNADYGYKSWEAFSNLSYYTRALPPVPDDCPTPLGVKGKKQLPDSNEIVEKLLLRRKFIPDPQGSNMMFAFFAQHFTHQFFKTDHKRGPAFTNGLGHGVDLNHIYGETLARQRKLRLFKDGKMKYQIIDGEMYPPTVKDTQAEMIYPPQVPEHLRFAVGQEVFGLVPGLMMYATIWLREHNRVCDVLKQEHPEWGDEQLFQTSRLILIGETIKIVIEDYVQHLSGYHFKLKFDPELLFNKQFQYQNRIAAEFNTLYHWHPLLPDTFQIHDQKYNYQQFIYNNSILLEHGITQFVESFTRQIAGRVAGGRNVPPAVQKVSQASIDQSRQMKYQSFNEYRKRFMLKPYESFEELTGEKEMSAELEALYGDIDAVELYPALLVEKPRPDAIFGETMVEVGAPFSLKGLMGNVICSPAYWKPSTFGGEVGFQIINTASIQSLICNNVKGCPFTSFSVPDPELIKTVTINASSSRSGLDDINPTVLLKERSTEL
Description: For the determination of COX-1 and COX-2 inhibitory activity, the tested compounds were dissolved in dimethyl sulfoxide (DMSO, 5 mM stock solution) and then diluted with the same solvent to obtain the test solutions. The test solutions were further diluted 5× with COX Assay Buffer (2 µL of test solution: 8 µL COX Assay Buffer). […] Solvent Control (SC) was prepared by adding 2 µL DMSO and 8 µL COX Assay Buffer, while Sample (S) and Enzyme Control (EC) were prepared by adding 10 µL of diluted test solution and COX Assay Buffer, respectively, into assigned wells.

[3] = tested on: MIA PaCa-2 tumor spheroids; assay: 3D spheroid formation/growth assay; type: cell-based, human; set-up: Spheroid Diameter Day 0 / Spheroid Diameter Day 9: unit not given here; conditions: for Spheroid Diameter Day 0: Day 0 (baseline)
Description: (§1) For the preliminary assessment of anticancer activity in a 2D cell culture system, an MIA PaCa-2 human pancreas epithelial carcinoma (CRL-1420™) cell line (ATCC, Manassas, VA, USA) was cultured in Dulbecco’s Modified Eagle Medium with 10% fetal bovine serum (FBS, v/v) (Gibco, Billings, MT, USA) and supplemented with 1% antibiotics (10,000 μg/mL streptomycin and 10,000 U/mL penicillin) (Gibco, Billings, MT, USA) at 37 °C in a humidified 5% CO2 atmosphere. For the in vitro modeling of the tumor microenvironment, compounds were also tested in a 3D spheroid test system. For this purpose, the MIA PaCa-2 human pancreas epithelial carcinoma (CRL-1420™) cell line and human dermal fibroblast cell line HDF (PCS-201-012) cells were used.
For 3D spheroid formation, the MIA PaCa-2 cells (PC cell line) and HDF cells were used according to the 3D Bioprinting method. To better simulate the tumor microenvironment, PC cells were mixed (1:1) with human fibroblasts. Briefly, the MIA PaCa-2 cells and human fibroblasts at 70–80% confluency were added to a 6-well plate and incubated with biocompatible NanoShuttle TM-PL (Bioprinting Kit, Greiner Bio-One, Germany) overnight at 37 °C in a humidified 5% CO2 atmosphere. After the nanoparticles were taken up by the cells, they were resuspended and seeded into an ultra-low attachment 96-well plate at a volume of 100 μL (2000 PC cells and 2000 human fibroblasts per well) volume. The plate was placed on a magnetic drive and incubated at 37 °C in a humidified 5% CO2 atmosphere until spheroids were formed. After two days of incubation, the spheroids were photographed using light microscopy (Carl Zeiss Primo Vert, Germany). Fresh medium containing 0.1, 1, 10, and 100 µM of tested compound was added to the wells. Photos were taken every 72 h, and the medium was replaced every 72 h. The effect of the tested compounds in 3D PC cell cultures was examined by measuring the size change of spheroids using ImageJ software (ImageJ 2.0 software, USA).

[4] = tested on: MIA PaCa-2 cell line; assay: 2D anticancer activity, MTT assay; type: cell-based; conditions: Homo sapiens, 72 h exposure, read-out: IC50 in 2D cultured MIA PaCa-2 cell line
Description: as §1
For the assessment of anticancer activity of the compounds, the MIA PaCa-2 cells were plated in 48-well microplates at 1.5 × 10^5 cells/mL and incubated for 24 h at 37 °C in 5% CO2 in accordance with a previously reported method. Following the day, the cells were treated with compounds in various concentrations between 0.1–100 µM dissolved in dimethyl sulfoxide (DMSO) (Sigma Aldrich, St. Louis, MO, USA). Following the 72 h of incubation, culture mediums were discarded and 0.5 mg/mL 3-(4,5-Dimethylthiazol-2-yl)-2,5-Diphenyltetrazolium Bromide (MTT) (Sigma Aldrich, St. Louis, MO, USA) was added to each well for an additional 2 h at 37 °C. After 2 h incubation, the medium was discarded and 100 µL of isopropanol (Sigma Aldrich, St. Louis, MO, USA) was added to the wells to dissolve formazan crystals. The optical density was measured at 570 nm wavelength using a microplate reader (Thermo Fisher Scientific Multiskan, Finland). Doxorubicin hydrochloride (DOX) (European Pharmacopoeia standard, Sigma) was used as internal positive control, and 0.5% DMSO (v/v) was used as negative control. The percentage of cell viability was determined by using the following equation:(1) Viability %=(Absorbancecompound)/(Absorbancenegative control)×100%

[5] = tested on: HaCaT cell line; assay: Cell viability (cytotoxicity) in healthy cells, MTT assay; type: cell-based, human; conditions: Homo sapiens, HaCaT; MTT, 72 h, healthy keratinocytes; read-out: IC50 in 2D cultured HaCaT cell line
Description: HaCaT human healthy keratinocyte cells (CRL-2404™) (ATCC, Manassas, VA, USA) were cultured in DMEM (10% FBS, v/v) (Gibco, Billings, MT, USA), respectively and supplemented with 1% antibiotics (10.000 μg/mL streptomycin and 10.000 units/mL penicillin) (Gibco, Billings, MT, USA) at 37 °C in a humidified atmosphere of 5% CO2. For the preliminary assessment of the cytotoxicity of selected potent compounds in healthy cells, HaCaT cells were seeded 2 × 10^5 cells/mL in 96-well plate and incubated for 24 h. The following day the 7a, 7d, and 7f compounds were applied similarly as in the MIA PaCa-2 cytotoxicity protocol between concentrations 0.62–100 µM for 72 h and then MTT was applied.

Structure (SMILES)	5-LOX Percent of İnhibition [1] [%]	COX-2 Percent of İnhibition [2] [%]	IC50 [4] [µM]	melting point [°C]	IC50 [1] [µM]	Spheroid Diameter Day 0 ([3]; 0.1 µM group)	Spheroid Diameter Day 9 ([3]; 0.1 µM)	Spheroid Diameter Day 0 ([3]; 1 µM group)	Spheroid Diameter Day 9 ([3]; 1 µM)	Spheroid state at the end of the 9 days ([3]; 10–100 µM)	Spheroid Diameter Day 0 ([3]; 10 µM group)	Spheroid Diameter Day 9 ([3]; 10 µM)	Spheroid Diameter Day 0 ([3]; 100 µM group)	Spheroid Diameter Day 9 ([3]; 100 µM)	IC50 [5] [µM]	Reduction in spheroid size ([3]; 10 µM, after 9 days of treatment) [%]	Spheroid state at the end of the 9 days ([3]; 100 µM)
COc1ccc(/C=N/NC(=O)c2cc(-c3ccccc3)c(-c3ccccc3)s2)cc1OC [7g, N’-[(E)-(3,4-dimethoxyphenyl)methylidene]-4,5-diphenylthiophene-2-carbohydrazide]	20.38 ± 1.98	11.41 ± 3.40	24.2 ± 3.76	253		1222.5 ± 28.73	5969.0 ± 59.6	985.5 ± 65.7	3318.0 ± 35.4	disintegrated							
CC(c1cc2ccccc2s1)N(O)C(N)=O (stereo not drawn) [Zileuton, reference compound]	64.85 ± 0.39																
O=C(N/N=C/c1cccc(O)c1)c1cc(-c2ccccc2)c(-c2ccccc2)s1 [7b, N’-[(E)-(3-hydroxyphenyl)methylidene]-4,5-diphenylthiophene-2-carbohydrazide]	25.77 ± 2.54	24.13 ± 1.55	9.09 ± 1.11	225	93.2 ± 9.89	1193.0 ± 13.1	5922.5 ± 39.8	1185.5 ± 82.7	6461.5 ± 59.6		969.3 ± 28.9	4192.0 ± 44.8	644.7 ± 26.9	1050.5 ± 18.9			
COc1ccc(/C=N/NC(=O)c2cc(-c3ccccc3)c(-c3ccccc3)s2)c(OC)c1OC [7h, N’-[(E)-(2,3,4-trimethoxyphenyl)methylidene]-4,5-diphenylthiophene-2-carbohydrazide]	19.87 ± 1.62	8.35 ± 0.93	> 100	245		1125.5 ± 28.9	5215 ± 18.3	1220.5 ± 31.5	6682.5 ± 7.1		1192.0 ± 24.7	8165.5 ±18.1	942.0 ± 58.9	7936.5 ± 48.6			

More lines, main results first:

5-LOX Percent of İnhibition [1] [%]	COX-2 Percent of İnhibition [2] [%]	IC50 [4] [µM]	melting point [°C]	IC50 [1] [µM]	Structure (SMILES)	Spheroid Diameter Day 0 ([3]; 0.1 µM group)	Spheroid Diameter Day 9 ([3]; 0.1 µM)	Spheroid Diameter Day 0 ([3]; 1 µM group)	Spheroid Diameter Day 9 ([3]; 1 µM)	Spheroid state at the end of the 9 days ([3]; 10–100 µM)	Spheroid Diameter Day 0 ([3]; 10 µM group)	Spheroid Diameter Day 9 ([3]; 10 µM)	Spheroid Diameter Day 0 ([3]; 100 µM group)	Spheroid Diameter Day 9 ([3]; 100 µM)	IC50 [5] [µM]	Reduction in spheroid size ([3]; 10 µM, after 9 days of treatment) [%]	Spheroid state at the end of the 9 days ([3]; 100 µM)
		0.35 ± 0.18			COc1cccc2c1C(=O)c1c(O)c3c(c(O)c1C2=O)C[C@@](O)(C(=O)CO)C[C@@H]3O[C@H]1C[C@H](N)[C@H](O)[C@H](C)O1 [DOX, Doxorubicin hydrochloride, reference compound]										0.11 ± 0.08	24	
27.23 ± 0.64	13.27 ± 0.73	> 100	254		COc1cc(/C=N/NC(=O)c2cc(-c3ccccc3)c(-c3ccccc3)s2)cc(OC)c1OC [7i, N’-[(E)-(3,4,5-trimethoxyphenyl)methylidene]-4,5-diphenylthiophene-2-carbohydrazide]	1135.5 ± 2.5	5523.0 ± 15.2	943.0 ± 12.1	3539.0 ± 25.4			2764.0 ± 37.9	1023.0 ± 59.5	2776.5 ± 85.2			
36.10 ± 3.92	16.64 ± 1.11	9.65 ± 0.22	262		O=C(N/N=C/c1ccc2c(c1)OCO2)c1cc(-c2ccccc2)c(-c2ccccc2)s1 [7j, N’-[(E)-(2H-1,3-benzodioxol-5-yl)methylidene]-4,5-diphenylthiophene-2-carbohydrazide]	1112.0 ± 35.4	6291.5 ± 45.87	998.0 ± 11.5	5934.0 ± 96.3		1068.0 ± 68.1	5217.4 ± 25.7					disintegrated
